From patent publication US9914730B2, “Azaquinazoline inhibitors of Atypical protein Kinase C” (Ignyta, Inc., priority 2012, dated 2018) come the findings set out here.

This assay deals with T1, full-length human PKCι (Homo sapiens, UniProt P41743).
T1 construct: Recombinant, full-length human PKCι expressed in Sf21 insect cells is also commercially available; purchased; host or cells: Sf21 insect cells
T1 sequence (P41743 1-596): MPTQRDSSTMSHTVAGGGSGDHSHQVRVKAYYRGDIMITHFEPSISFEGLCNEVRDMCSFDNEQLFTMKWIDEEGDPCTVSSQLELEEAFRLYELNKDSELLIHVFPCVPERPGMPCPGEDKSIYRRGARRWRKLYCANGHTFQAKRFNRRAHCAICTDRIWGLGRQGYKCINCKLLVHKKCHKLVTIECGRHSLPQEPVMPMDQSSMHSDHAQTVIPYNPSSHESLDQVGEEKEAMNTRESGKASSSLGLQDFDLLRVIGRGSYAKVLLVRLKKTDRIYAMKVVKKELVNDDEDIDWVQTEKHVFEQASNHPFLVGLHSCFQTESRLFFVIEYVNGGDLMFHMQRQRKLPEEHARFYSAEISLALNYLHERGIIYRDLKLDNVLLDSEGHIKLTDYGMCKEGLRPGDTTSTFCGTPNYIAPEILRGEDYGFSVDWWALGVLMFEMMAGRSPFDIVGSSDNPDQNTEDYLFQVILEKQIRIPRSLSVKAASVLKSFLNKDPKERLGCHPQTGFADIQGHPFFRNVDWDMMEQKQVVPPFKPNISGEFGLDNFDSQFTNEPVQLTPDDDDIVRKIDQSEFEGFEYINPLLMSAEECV
As to the kind of experiment: PKCι IC50 IMAP assay, full-length PKCι at 150 μM ATP. The following applies: read-out: IC50 in IMAP assay against full length PKCi at 150 μM ATP. Format: biochemical. In outline: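 Dose-response IC50 values come from IMAP fluorescence polarisation after 60 min room-temperature turnover of 100 nM FAM peptide by ~15 pM insect-cell-expressed full-length PKCι at 150 μM ATP (5× KM^APP), normalised to no-compound and no-enzyme controls.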
Regarding `CN1CCN(c2cccc(Nc3cc(-c4nc(N5CCC(O)(O)C(F)(F)C5)c5c(C6CC6)cncc5n4)ccn3)c2)CC1` [Example 747, 1-(5-Cyclopropyl-2-{2-[3-(4-methyl-piperazin-1-yl)-phenylamino]-pyridin-4-yl}-pyrido[3,4-d]pyrimidin-4-yl)-3,3-difluoro-piperidine-4,4-diol], the IC50 was under 100 nM. The result for `Fc1cc(F)c(Nc2cc(-c3nc(N4CCNCC4)c4c(C5CC5)cncc4n3)ccn2)cn1` [Example 748, [4-(5-Cyclopropyl-4-piperazin-1-yl-pyrido[3,4-d]pyrimidin-2-yl)-pyridin-2-yl]-(4,6-difluoro-pyridin-3-yl)-amine] reads under 100 nM.

Turning to `Fc1cnc(F)c(Nc2cc(-c3nc(N4CCNCC4)c4c(C5CC5)cncc4n3)ccn2)c1` [Example 749, [4-(5-Cyclopropyl-4-piperazin-1-yl-pyrido[3,4-d]pyrimidin-2-yl)-pyridin-2-yl]-(2,5-difluoro-pyridin-3-yl)-amine], the IC50 was under 100 nM. As to `c1ccc(Nc2cc(-c3nc(N4CCNCC4)c4c(C5CC5)cncc4n3)ccn2)nc1` [Example 750, [4-(5-Cyclopropyl-4-piperazin-1-yl-pyrido[3,4-d]pyrimidin-2-yl)-pyridin-2-yl]-pyridin-2-yl-amine], the IC50 is under 100 nM. The result for `Fc1ccnc(Nc2cc(-c3nc(N4CCNCC4)c4c(C5CC5)cncc4n3)ccn2)c1` [Example 756, [4-(5-Cyclopropyl-4-piperazin-1-yl-pyrido[3,4-d]pyrimidin-2-yl)-pyridin-2-yl]-(4-fluoro-pyridin-2-yl)-amine] reads under 100 nM; that for `Fc1cccc(F)c1Nc1cc(-c2nc(OC3CCNCC3)c3c(C4CC4)cncc3n2)ccn1` [Example 757, {4-[5-Cyclopropyl-4-(piperidin-4-yloxy)-pyrido[3,4-d]pyrimidin-2-yl]-pyridin-2-yl}-(2,6-difluoro-phenyl)-amine], 100 to 1000 nM. The result for `Cn1cc(CNc2cc(-c3nc(N4CCNCC4)c4c(C5CC5)cncc4n3)ccn2)cn1` [Example 758, [4-(5-Cyclopropyl-4-piperazin-1-yl-pyrido[3,4-d]pyrimidin-2-yl)-pyridin-2-yl]-(1-methyl-1H-pyrazol-4-ylmethyl)-amine] reads under 100 nM; that for `CN1CCN(c2cccc(Nc3cc(-c4nc(N5CCCC5)c5c(C6CC6)cncc5n4)ccn3)c2)CC1` [Example 760, [4-(5-Cyclopropyl-4-pyrrolidin-1-yl-pyrido[3,4-d]pyrimidin-2-yl)-pyridin-2-yl]-[3-(4-methyl-piperazin-1-yl)-phenyl]-amine], 100 to 1000 nM.

`CN1CCN(c2cccc(Nc3cc(-c4nc(N5CCC5)c5c(C6CC6)cncc5n4)ccn3)c2)CC1` [Example 761, [4-(4-Azetidin-1-yl-5-cyclopropyl-pyrido[3,4-d]pyrimidin-2-yl)-pyridin-2-yl]-[3-(4-methyl-piperazin-1-yl)-phenyl]-amine]: the IC50 was 100 to 1000 nM. The result for `COc1ccc(F)c(Nc2cc(-c3nc(N4CCNCC4)c4c(C5CC5)cncc4n3)ccn2)n1` [Example 762, [4-(5-Cyclopropyl-4-piperazin-1-yl-pyrido[3,4-d]pyrimidin-2-yl)-pyridin-2-yl]-(3-fluoro-6-methoxy-pyridin-2-yl)-amine] reads under 100 nM; that for `CC1CN(c2nc(-c3ccnc(Nc4nc(F)ccc4F)c3)nc3cncc(C4CC4)c23)CC(C)N1` (stereo not drawn) [Example 763, {4-[5-Cyclopropyl-4-(3,5-dimethyl-piperazin-1-yl)-pyrido[3,4-d]pyrimidin-2-yl]-pyridin-2-yl}-(3,6-difluoro-pyridin-2-yl)-amine], under 100 nM. Consider `Fc1cnc(Nc2c(F)cccc2F)cc1-c1nc(N2CCNCC2)c2c(C3CC3)cncc2n1` [Example 764, [4-(5-Cyclopropyl-4-piperazin-1-yl-pyrido[3,4-d]pyrimidin-2-yl)-5-fluoro-pyridin-2-yl]-(2,6-difluoro-phenyl)-amine], for which the IC50 is under 100 nM. Turning to `Fc1ccc(Nc2cc(-c3nc(N4CCNCC4)c4c(C5CC5)cncc4n3)c(F)cn2)cc1` [Example 765, [4-(5-Cyclopropyl-4-piperazin-1-yl-pyrido[3,4-d]pyrimidin-2-yl)-5-fluoro-pyridin-2-yl]-(4-fluoro-phenyl)-amine], the IC50 was under 100 nM. The result for `c1cc(Nc2cc(-c3nc(N4CCCC4)c4c(C5CC5)cncc4n3)ccn2)cc(N2CCNCC2)c1` [Example 766, [4-(5-Cyclopropyl-4-pyrrolidin-1-yl-pyrido[3,4-d]pyrimidin-2-yl)-pyridin-2-yl]-(3-piperazin-1-yl-phenyl)-amine] reads 100 to 1000 nM; that for `c1cc(Nc2cc(-c3nc(N4CCC4)c4c(C5CC5)cncc4n3)ccn2)cc(N2CCNCC2)c1` [Example 767, [4-(4-Azetidin-1-yl-5-cyclopropyl-pyrido[3,4-d]pyrimidin-2-yl)-pyridin-2-yl]-(3-piperazin-1-yl-phenyl)-amine], 100 to 1000 nM; that for `CC(=O)Nc1cc(-c2nc(N3CCN[C@@H](COCc4ccccc4)C3)c3c(C4CC4)cncc3n2)ccn1` [Example 768, N-{4-[4-((R)-3-Benzyloxymethyl-piperazin-1-yl)-5-cyclopropyl-pyrido[3,4-d]pyrimidin-2-yl]-pyridin-2-yl}-acetamide], under 100 nM. Consider `CS(=O)(=O)C[C@H]1CN(c2nc(-c3ccnc(Nc4ccccc4)c3)nc3cncc(C4CC4)c23)CCN1` [Example 769, {4-[5-Cyclopropyl-4-((R)-3-methanesulfonyl-methyl-piperazin-1-yl)-pyrido[3,4-d]pyrimidin-2-yl]-pyridin-2-yl}-phenyl-amine], for which the IC50 was under 100 nM. The result for `CC(=O)Nc1cc(-c2nc(N3CCN[C@@H](CS(C)(=O)=O)C3)c3c(C4CC4)cncc3n2)ccn1` [Example 770, N-{4-[5-Cyclopropyl-4-((R)-3-methanesulfonyl-methyl-piperazin-1-yl)-pyrido[3,4-d]pyrimidin-2-yl]-pyridin-2-yl}-acetamide] reads 100 to 1000 nM; that for `CS(=O)(=O)C[C@H]1CN(c2nc(-c3ccnc(Nc4ccc(F)cc4)c3)nc3cncc(C4CC4)c23)CCN1` [Example 771, {4-[5-Cyclopropyl-4-((R)-3-methanesulfonyl-methyl-piperazin-1-yl)-pyrido[3,4-d]pyrimidin-2-yl]-pyridin-2-yl}-(4-fluoro-phenyl)-amine], 1000 to 10000 nM; that for `CS(=O)(=O)C[C@H]1CN(c2nc(-c3ccnc(Nc4c(F)cccc4F)c3)nc3cncc(C4CC4)c23)CCN1` [Example 772, {4-[5-Cyclopropyl-4-((R)-3-methanesulfonyl-methyl-piperazin-1-yl)-pyrido[3,4-d]pyrimidin-2-yl]-pyridin-2-yl}-(2,6-difluoro-phenyl)-amine], 100 to 1000 nM. The result for `CS(=O)(=O)C[C@H]1CN(c2nc(-c3ccnc(NC(=O)C4CC4)c3)nc3cncc(C4CC4)c23)CCN1` [Example 773, Cyclopropanecar-boxylic acid {4-[5-cyclopropyl-4-((R)-3-methanesulfonyl-methyl-piperazin-1-yl)-pyrido[3,4-d]pyrimidin-2-yl]-pyridin-2-yl}-amide] reads 100 to 1000 nM; that for `Fc1cc(F)c(F)c(Nc2cc(-c3nc(N4CCNCC4)c4c(C5CC5)cncc4n3)ccn2)n1` [Example 774, [4-(5-Cyclopropyl-4-piperazin-1-yl-pyrido[3,4-d]pyrimidin-2-yl)-pyridin-2-yl]-(3,4,6-trifluoro-pyridin-2-yl)-amine], under 100 nM; that for `CNCCNc1nc(-c2ccnc(Nc3c(F)cccc3F)c2)nc2cncc(C3CC3)c12` [Example 775, N-{5-Cyclopropyl-2-[2-(2,6-difluoro-phenylamino)-pyridin-4-yl]-pyrido[3,4-d]pyrimidin-4-yl}-N′-methyl-ethane-1,2-diamine], under 100 nM. The result for `CN(C)CCNc1nc(-c2ccnc(Nc3c(F)cccc3F)c2)nc2cncc(C3CC3)c12` [Example 776, N-{5-Cyclopropyl-2-[2-(2,6-difluoro-phenylamino)-pyridin-4-yl]-pyrido[3,4-d]pyrimidin-4-yl}-N′,N′-dimethyl-ethane-1,2-diamine] reads 100 to 1000 nM; that for `CN1CCN(c2cccc(Nc3cc(-c4nc(N5CC(O)C5)c5c(C6CC6)cncc5n4)ccn3)c2)CC1` [Example 777, 1-(5-Cyclopropyl-2-{2-[3-(4-methyl-piperazin-1-yl)-phenylamino]-pyridin-4-yl}-pyrido[3,4-d]pyrimidin-4-yl)-azetidin-3-ol], 100 to 1000 nM. As to `OC1CN(c2nc(-c3ccnc(Nc4cccc(N5CCNCC5)c4)c3)nc3cncc(C4CC4)c23)C1` [Example 778, 1-{5-Cyclopropyl-2-[2-(3-piperazin-1-yl-phenylamino)-pyridin-4-yl]-pyrido[3,4-d]pyrimidin-4-yl}-azetidin-3-ol], the IC50 is under 100 nM. The result for `CC(C)n1ccc(Nc2cc(-c3nc(N4CCNCC4)c4c(C5CC5)cncc4n3)ccn2)n1` [Example 779, [4-(5-Cyclopropyl-4-piperazin-1-yl-pyrido[3,4-d]pyrimidin-2-yl)-pyridin-2-yl]-(1-isopropyl-1H-pyrazol-3-yl)-amine] reads under 100 nM.

What is called IC50 is the concentration at which inhibition is half-maximal.
